Source: patent US20250347692A1, “METHOD FOR DETERMINING THE RESPONSE TO METHOTREXATE (MTX) IN A HUMAN SUBJECT DIAGNOSED WITH RHEUMATOID ARTHRITIS” (BIOHOPE SCIENTIFIC SOLUTIONS FOR HUMAN HEALTH, S.L, priority 2022, published 2025)

Tested on: PBMCs from naïve RA patients
Experiment: ROS TEST: ROS production of PHA-activated PBMCs exposed to MTX, fluorimetry
Assay type: cell-based, human
Details: PBMCs of naïve RA patients with clinical remission at 6 months of methotrexate (n=17) versus those without (n=8), E. coli stimulated, ANOVA p 0.0003
Excerpt: Therefore, the decision was made to investigate a model of in vitro exposure of RA patients' cells to MTX and the measurement of its direct effect as a pharmacodynamic biomarker of response. […] Therefore, the hypothesis is that treatment of PBMCs with the drug methotrexate causes an increase in reactive oxygen species (ROS) production due to increased apoptosis in T lymphocytes in responder patients. […] Based on the above, in the present example the above two assays will be carried out using PBMCs obtained or isolated from RA patients. Briefly, first, a peripheral blood draw is performed from a rheumatoid arthritis patient who meets the inclusion criteria indicated below in the “Methodology” section, and peripheral blood mononuclear cells (PBMCs) are isolated by density gradient. These PBMCs are frozen and maintained in liquid nitrogen for a time period of at least two weeks. After this time, the PBMCs are thawed and incubated in a flat-bottomed p96 plate at 37° C. and 5% CO2 for 24 hours. The next day, phytohemagglutinin (PHA) and MTX are added to the corresponding wells and the plate is incubated for 48 hours. Finally, the probes corresponding to each test are added: • ROS test: ROS probe+E. coli • MONOCYTE test: resazurin Both tests were carried out on the same plate, read at Ex/Em 535/610 wavelengths, in a fluorescence reader.

In the case of `CN(Cc1cnc2nc(N)nc(N)c2n1)c1ccc(C(=O)N[C@@H](CCC(=O)O)C(=O)O)cc1` [MTX, methotrexate], the “ROS production levels (fluorescence units) after exposure of PBMCs to MTX” value is reported as “significantly increased”.
